Experimental data reported in patent publication US10883088B2, “Biological upgrading of hydrocarbon streams with oxygenases” (priority 2017, dated 2021).

Assays:
ChuS = assay: UV-VIS Soret band screen of model porphyrins with ChuS; format: biochemical, E. coli; details: porphyrin treated with ChuS; UV-VIS absorbance, room temperature; shift vs Control indicates protein-porphyrin interaction
Excerpt: (§1) UV-VIS spectroscopy was used for initial screening of protein activity against numerous model compounds because each model porphyrin has a characteristic UV-VIS absorbance spectrum. A shift in the wavelength of maximal absorbance, commonly referred to as the “Soret band,” indicates a change in porphyrin conformation or a protein-porphyrin interaction.
(§2) To prepare crude protein, aliquots were thawed on ice and diluted 4-fold with protein assay buffer (PAB). To isolate purified oxygenases, protein aliquots were thawed on ice and proteins of interest were purified by HIS-tag-Ni-NTA column affinity followed by size exclusion chromatography with PD-10 desalting columns. Purified protein was eluted in PAB, collected in the first 2 mL PD-10 column flow-through fraction. Relative to the initial protein concentration, samples were diluted 4-fold to parallel crude protein samples.
(§3) Model porphyrin stocks were prepared in porphyrin phosphate buffer (PPB), stored at 4° C. in amber bottles to protect samples from light, and used or discarded within one month.
(§4) Amber tubes were used for all assays to protect samples from light. Crude and purified protein samples were combined with porphyrin substrates, to achieve final concentrations in Table 4, and total assay volumes were raised to 10 mL with Tris buffer. Absorbance of a 2.4 mL sample was measured in a 1 cm quartz cuvette, at room temperature, 1 nm resolution, and 0.7 sec. integration time on an Evolution201® UV-VIS spectrophotometer with Thermo INSIGHT® software. Samples were incubated for 24 hrs. at room temperature and 75 RPM and their final UV-VIS absorbance spectra was measured. An absorbance baseline was collected using Tris buffer at the beginning of each time point and ≤1% error was observed between technical replicates. Crude, empty pET28b vector (EV) strain lysate protein and PAB only controls were run in parallel with experimental samples (EXP) for each porphyrin.

PigA = biological target: T1, PigA (Pseudomonas aeruginosa, UniProt G3XCZ8); assay: UV-VIS Soret band screen of model porphyrins with PigA; format: biochemical, P. aeruginosa; details: porphyrin treated with PigA; UV-VIS absorbance, room temperature; shift vs Control indicates protein-porphyrin interaction
T1 construct: Expression plasmids were constructed by inserting the gene for each oxygenase into the base vector pET28b; His-tag (N); made in house; host or cells: E. coli BL21-DE3(T1), pET28b
Excerpt: (§5) A shift in the wavelength of maximal absorbance, commonly referred to as the “Soret band,” indicates a change in porphyrin conformation or a protein-porphyrin interaction.
as §2, §3
as §4, with “measured.” for “measured. An absorbance baseline was collected using Tris buffer at the beginning of each time point and ≤1% error was observed between technical replicates. Crude, empty pET28b vector (EV) strain lysate protein and PAB only controls were run in parallel with experimental samples (EXP) for each porphyrin.”

HmuO = assay: UV-VIS Soret band screen of model porphyrins with HmuO; format: biochemical, C. jeikeium; details: porphyrin treated with HmuO; UV-VIS absorbance, room temperature; shift vs Control indicates protein-porphyrin interaction
Excerpt: as §5, §2, §3
as §4, with “measured.” for “measured. An absorbance baseline was collected using Tris buffer at the beginning of each time point and ≤1% error was observed between technical replicates. Crude, empty pET28b vector (EV) strain lysate protein and PAB only controls were run in parallel with experimental samples (EXP) for each porphyrin.”

IsdI = biological target: T2, IsdI (Staphylococcus aureus, UniProt Q99X56); assay: UV-VIS Soret band screen of model porphyrins with IsdI; format: biochemical, S. aureus; details: porphyrin treated with IsdI; UV-VIS absorbance, room temperature; shift vs Control indicates protein-porphyrin interaction
T2 construct: Expression plasmids were constructed by inserting the gene for each oxygenase into the base vector pET28b; His-tag (N); made in house; host or cells: E. coli BL21-DE3(T1), pET28b
Excerpt: as §1, §2, §3, §4

HugZ = biological target: T3, HugZ (Helicobacter pylori, UniProt O25087); assay: UV-VIS Soret band screen of model porphyrins with HugZ; format: biochemical, H. pylori; details: porphyrin treated with HugZ; UV-VIS absorbance, room temperature; shift vs Control indicates protein-porphyrin interaction
T3 construct: Expression plasmids were constructed by inserting the gene for each oxygenase into the base vector pET28b; His-tag (N); made in house; host or cells: E. coli BL21-DE3(T1), pET28b
Excerpt: as §1, §2, §3, §4

IsdG = biological target: T4, IsdG (Staphylococcus aureus, UniProt Q99UW8); assay: UV-VIS Soret band screen of model porphyrins with IsdG; format: biochemical, S. aureus; details: porphyrin treated with IsdG; UV-VIS absorbance, room temperature; shift vs Control indicates protein-porphyrin interaction
T4 construct: Expression plasmids were constructed by inserting the gene for each oxygenase into the base vector pET28b; His-tag (N); made in house; host or cells: E. coli BL21-DE3(T1), pET28b
Excerpt: as §1, §2, §3, §4

Molecule | Soret band wavelength (ChuS) | Soret band wavelength (PigA) [nm] | Soret band wavelength (HmuO) [nm] | Soret band wavelength (IsdI) [nm] | Soret band wavelength (HugZ) [nm] | Soret band wavelength (IsdG) [nm]
hemin | 405/400 | 400 | 399 | 390 | 405 | 390
Fe(III)-meso-tetra-(4-carboxyphenyl) porphine chloride | 424/420 | 414 | 417 | 410 | 418 | 410
C=CC1=C(C)c2cc3[n-]c(cc4[n-]c(cc5nc(cc1n2)C(C)=C5C=C)c(C)c4CCC(=O)[O-])c(CCC(=O)[O-])c3C.[H+].[H+].[Ni+2] [Ni(II)-protoporphyrin (IX)] | 400 nm | 400 | 400 | 400 | 417 | 400
C[n+]1ccc(-c2c3nc(c(-c4cc[n+](C)cc4)c4ccc([n-]4)c(-c4cc[n+](C)cc4)c4nc(c(-c5cc[n+](C)cc5)c5ccc2[n-]5)C=C4)C=C3)cc1.[Cl-].[Cl-].[Cl-].[Cl-].[O]=[V+2] [VO-meso-tetra-(N-methyl-4-pyridyl), VO-meso-tetra-(N-methyl-4-pyridyl) porphine tetrachloride] | 422 nm | – | 422 | – | – | –
C[n+]1ccc(-c2c3nc(c(-c4cc[n+](C)cc4)c4ccc([n-]4)c(-c4cc[n+](C)cc4)c4nc(c(-c5cc[n+](C)cc5)c5ccc2[n-]5)C=C4)C=C3)cc1.[Cl-].[Cl-].[Cl-].[Cl-].[Ni+2] [Ni(II)-meso-tetra-(Nmethyl-4-pyridyl) porphine tetrachloride] | 440 nm | – | 440 | – | – | –
O=C(O)c1ccc(-c2c3nc(c(-c4ccc(C(=O)O)cc4)c4ccc([n-]4)c(-c4ccc(C(=O)O)cc4)c4nc(c(-c5ccc(C(=O)O)cc5)c5ccc2[n-]5)C=C4)C=C3)cc1.[Ni+2] [Ni(II)-meso-tetra-(4-carboxyphenyl) porphine] | 410/405 | 404 | 405 | 400 | 400 | 400
